This data set can be described thus: Unit input response, intravenous bolus plasma concentration. It is filed as in vivo. To be noted: human, read-out: Plasma Concentration of API A. The text has this:
In predicting plasma concentration time profiles, we used two steps. First, we time scaled in vitro release profiles to use as our reference. Second, we obtained convolution of time-scaled in vitro release profile with unit input response (UIR) we obtained using intravenous bolus dose profile in a physiologically based pharmacokinetic model (PBPK).
FIG. 18 illustrates use of convolution of time-scaled in vitro release profile data (panel A, Table 4) with unit input response (UIR) obtained using an intravenous bolus dose (panel B, Table 5) to generate predictive plasma concentration-time profiles (panel C, Table 6). Panel A includes time-scaled mean in vitro release profiles of various solution-based subcutaneous long acting injectables of API. Panel C includes observed versus predicted mean plasma concentration-time profiles in humans for various solution-based subcutaneous long acting injectables of API A.

Consider `CC(C)(C#Cc1ccc(-c2ccc(Cl)c3c(NS(C)(=O)=O)nn(CC(F)(F)F)c23)c([C@H](Cc2cc(F)cc(F)c2)NC(=O)Cn2nc(C(F)(F)F)c3c2C(F)(F)[C@@H]2C[C@H]32)n1)S(C)(=O)=O` [API A, Lenacapavir], for which the concentration at 0 days (0.00 days) stood at 0 µg/mL. The concentration at 0.04 days (0.04 days) was 162 ng/mL. The concentration at 0.08 days (0.08 days) came to 27.7 ng/mL. The concentration at 0.17 days (0.17 days) worked out at 14 ng/mL. For the same compound, the concentration at 0.25 days (0.25 days) was 7.73 ng/mL. In addition, where the note is “0.33 days”, the concentration at 0.33 days came out at 5.71 ng/mL. The concentration at 0.5 days (0.50 days) is 4.68 ng/mL. Further, the concentration at 1 days (1.00 days) is 4.33 ng/mL. Besides, the concentration at 2 days (2.00 days) turned out to be 4.37 ng/mL. In addition, the concentration at 3 days (3.00 days) amounted to 4.29 ng/mL. In addition, the concentration at 5 days (5.00 days) was 3.49 ng/mL. Moreover, under “7.00 days”, the concentration at 7 days is 3.45 ng/mL. Further, the concentration at 9 days (9.00 days) came to 2.84 ng/mL. The concentration at 11 days (11.00 days) amounted to 2.61 ng/mL. Besides, where the note is “14.00 days”, the concentration at 14 days was 2.33 ng/mL. For the same compound, for the setting “20.92 days”, the concentration at 20.92 days is 1.71 ng/mL. The concentration at 27.92 days (27.92 days) is 1.1 ng/mL. For the setting “34.96 days”, the concentration at 34.96 days is 0.71 ng/mL. For the same compound, the concentration at 41.96 days (41.96 days) was found to be 0.43 ng/mL. In addition, the concentration at 55.96 days (55.96 days) turned out to be 0.25 ng/mL.

For the origin of these results see US20250354970A1, “SYSTEMS, METHODS, AND APPARATUSES FOR CHARACTERIZING RELEASE PROFILES FOR LONG-ACTING INJECTABLE MEDICATIONS” (Gilead Sciences, Inc., priority 2024, published 2025).
